Assay results as given in patent publication US7037901B1, “Radiosensitization by indolocarbazole derivatives” (priority 2001, dated 2006).

Tests used:
[1] = test system: human breast cancer MCF-7 cells; test: Clonogenic survival assay with radiation (radiosensitization) in MCF-7 cells; assay type: cell-based
Protocol: (§1) Clonogenic Survival Assay. […] 18–24 h prior to experimental studies.
(§2) Colonies consisting of >50 cells were counted.
(§3) Irradiation of Cells. Drug-treated and control cells in medium were irradiated using a cobalt-60 source (Eldorado 8; Theratronics, Canada) at a dose rate of 105 cGy/min.
(§4) Analysis of Survival Curves. Survival curves were corrected for cytotoxicity induced by drug alone treatment. Sensitization enhancement ratios (SERs) and standard deviations for survival curves were determined at 10% cell survival. Each SER was calculated by dividing the radiation dose to induce 10% cell survival in the absence of radiosensitizer with the radiation dose to induce 10% cell survival in the presence of radiosensitizer.
The updated programs developed by Dr. N. Albright (San Rafael, Calif.) (Albright, N., Radiat. Res., 112:331–340 (1987)) were used for curve fitting for MCF-7 cells with the linear quadratic (LQ) and the single hit multi-target (SHMT) models. Both the LQ and SHMT models gave qualitatively good fits. The fit with the SHMT model was used for the present study.

[2] = test system: human breast cancer MCF-7 cells; test: Clonogenic survival assay, drug alone (cytotoxicity) in MCF-7 cells; assay type: cell-based; conditions: 1 μM camptothecin for 1 h, read graphically from FIG. 2
Protocol: as §1, §2

[3] = target: T1, covalent topoisomerase-DNA cross-links in CHO cells (Cricetulus griseus, UniProt Q07050, S505G); test: In vivo K+-SDS co-precipitation assay for protein-DNA cross-links; assay type: cell-based, Chinese hamster; conditions: FIG. 5
T1 construct: endogenous in cells; host or cells: Chinese hamster ovary CHO cells
From the text: In vivo K^+-SDS co-precipitation assay for protein-DNA cross-links. The K^+-SDS co-precipitation assay as described previously (Chen, Y. N., et al., J. Biol. Chem., 265:10073–10080 (1990)) was used to quantify the formation of covalent topoisomerase-DNA cross-links in drug-treated cells.
Briefly, the DNA in logarithmic growing Chinese hamster CHO cells was overnight-labeled in medium containing 1 μCi/ml of [mehtyl-^3H] thymidine. These cells were then trypsinized and diluted in fresh medium before aliquoted into a 24-well plate. After overnight incubation, the labeled cells were treated with various concentrations of drugs for 30 min, washed with phosphate-buffered saline once, and lysed by adding 1 ml of prewarmed lysis solution (1.25% SDS, 5 mM EDTA, 0.4 mg/ml salmon sperm DNA, pH 8.0, 65° C.).
Following shearing chromosomal DNA by passing the lysate through a 19-gauge needle, the sample was transferred to a tube containing 0.25 ml of 325 mM KCl. The sample was vortexed vigorously for 10 s, cooled on ice for 10 min and centrifuged at 3000 rpm for 10 min at 4° C.
The pellet was then resuspended in 1 ml of a wash solution (100 mM KCl, 1 mM EDTA, 0.1 mg/ml salmon sperm DNA, 10 mM Tris-HCl, pH 8.0) and placed at 65° C. for 10 min with occasional mixing. The sample was again cooled on ice for 10 min and centrifuged at 3000 rpm for 10 min at 4° C. After the pellet from each sample was washed again, the pellet was finally resuspended in 0.2 ml of 65° C. water and added to 5 ml of scintillation fluid to determine radioactive counts.
The background precipitable counts were obtained by treating the lysate with proteinase K (400 μg/ml) at 65° C. for 2 h. Data are arithmetic means (±SD) of three determinations, and the background counts have been subtracted.

[4] = test system: camptothecin-resistant, TOP1 mutant DC3F/C-10 cells
Protocol: Clonogenic Survival Assay. For a typical clonogenic survival experiment, stock cultures of exponentially growing cells were trypsinized, rinsed, and plated (5×10^5 cells per dish for DC3F and DC3F/C-10 cells; 1×10^6 cells for MCF-7 cells) into 100-mm petri dishes and incubated at 37° C. 18–24 h prior to experimental studies.
Following various experimental protocols with drug incubation and irradiation, cells were trypsinized, rinsed, counted, and plated for […] colony formation. Depending on the anticipated survival level, 10^2 to 10^5 cells were plated per dose point. When higher cell numbers were plated, large petri dishes were used to avoid possible cell-density effect (100-mm instead of 60-mm petri dishes for cell number≧5×10^4). Depending on the treatment protocols, an equivalent amount of DMSO was added into each of the control radiation alone dishes (final DMSO concentration <0.1%).
Following seven to fourteen days of incubation, colonies were fixed with methanol/acetic acid (3:1), stained with crystal violet. Colonies consisting of >50 cells were counted. All survival points were done in triplicate, and experiments were conducted a minimum of two times. Error bars shown in the figures represent standard deviations (SD) and are shown when larger than the symbol.
The DC3F/C-10 cell line was selected from the Chinese Hamster lung fibroblast DC3F cell line in the presence of 1 μM of camptothecin (Albright, N., Radiat. Res., 112:331–340 (1987), and Chen, Y. N., J. Biol. Chem., 265:10073–10080 (1990)). […] In an attempt to determine the importance of TOP1 in mediating the cytotoxic and radiosensitizing effects by INDO derivatives, clonogenic survival assays were performed in DC3F and DC3F/C10 cells.

DC3F cells = test: Radiosensitization in DC3F cells (clonogenic survival with radiation); assay type: cell-based, Chinese hamster
Protocol: as §1, §2, §3, §4

[5] = test system: TOP1 mutant DC3F/C10 cells; test: Radiosensitization in DC3F/C10 cells (clonogenic survival with radiation); assay type: cell-based, Chinese hamster; conditions: DC3F/C10 cells
Protocol: as §1, §2, §3, §4

purified human TOP1 = target: T2, purified human TOP1 (Homo sapiens, UniProt P11387); test: In vitro drug-stimulated TOP1 cleavage assay (pHOT1 plasmid nicking); assay type: biochemical; conditions: purified human TOP1; FIG. 4, 4C
T2 construct: purchased TopoGEN, Inc. (Columbus, Ohio)
T2 sequence (P11387 1-765): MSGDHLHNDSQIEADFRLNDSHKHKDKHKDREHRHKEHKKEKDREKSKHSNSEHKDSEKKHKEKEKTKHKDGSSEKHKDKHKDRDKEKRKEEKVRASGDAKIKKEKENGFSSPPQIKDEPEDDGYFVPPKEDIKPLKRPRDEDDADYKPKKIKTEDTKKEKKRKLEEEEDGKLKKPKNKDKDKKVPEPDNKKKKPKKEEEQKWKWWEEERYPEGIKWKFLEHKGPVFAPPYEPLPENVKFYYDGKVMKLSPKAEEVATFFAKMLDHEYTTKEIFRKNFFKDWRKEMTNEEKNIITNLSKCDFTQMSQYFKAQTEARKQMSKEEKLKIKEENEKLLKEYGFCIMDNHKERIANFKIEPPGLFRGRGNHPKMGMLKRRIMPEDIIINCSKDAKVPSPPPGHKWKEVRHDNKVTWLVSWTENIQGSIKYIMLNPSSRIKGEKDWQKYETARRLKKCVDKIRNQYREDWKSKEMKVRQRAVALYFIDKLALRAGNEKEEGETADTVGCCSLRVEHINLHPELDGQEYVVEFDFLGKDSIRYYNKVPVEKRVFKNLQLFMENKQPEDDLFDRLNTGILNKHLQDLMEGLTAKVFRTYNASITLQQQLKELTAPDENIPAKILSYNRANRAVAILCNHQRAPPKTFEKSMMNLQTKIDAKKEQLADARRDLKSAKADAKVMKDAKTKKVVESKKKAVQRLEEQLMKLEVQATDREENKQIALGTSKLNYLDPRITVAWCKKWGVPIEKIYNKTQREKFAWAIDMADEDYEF
Protocol: In vitro drug-stimulated TOP1 cleavage assay. Drug-stimulated DNA cleavage assay using purified human TOP1 was performed according to the protocol provided by TopoGEN Inc. (Columbus, Ohio) with modifications.
Briefly, supercoiled pHOT1 plasmid DNA (0.2 μg) was incubated with 1 unit of human TOP1 in cleavage buffer (50 mM Tris, pH 7.8, 50 mM KCl, 10 mM MgCl2, 1 mM dithiothreitol, 1 mM EDTA) in the presence of varying concentrations of the drug under study. Following a 30-min incubation at 37° C., the reactions were terminated by adding SDS to 1.0% and proteinase K to 200 μg/ml. The proteinase K treatment continued at 37° C. for 1 h. The sample was then mixed with loading dye (containing sucrose and bromphenol blue) and separated in 1% agarose gel in 0.08 M Tris-phosphate, 0.008 M EDTA, pH 8.0 buffer at room temperature for 16 h.
The gel was initially stained with ethidium bromide ([…]), washed and photographed under UV light. In order to separate the “nicked” from the “relaxed” DNA population, the gel was further run for 4 h in the presence of ethidium bromide before being photographed again under UV light. The photograph was scanned and the intensity of the nicked DNA of each lane was measured using the ImageJ program obtained from the National Institutes of Health (web site: rsb.info.nih.gov/ij/). The intensity of the nicked band of each lane was plotted after the background intensity (pHOT1+TOP1 lane) was subtracted.

T1 sequence (Q07050 2-767 S505G): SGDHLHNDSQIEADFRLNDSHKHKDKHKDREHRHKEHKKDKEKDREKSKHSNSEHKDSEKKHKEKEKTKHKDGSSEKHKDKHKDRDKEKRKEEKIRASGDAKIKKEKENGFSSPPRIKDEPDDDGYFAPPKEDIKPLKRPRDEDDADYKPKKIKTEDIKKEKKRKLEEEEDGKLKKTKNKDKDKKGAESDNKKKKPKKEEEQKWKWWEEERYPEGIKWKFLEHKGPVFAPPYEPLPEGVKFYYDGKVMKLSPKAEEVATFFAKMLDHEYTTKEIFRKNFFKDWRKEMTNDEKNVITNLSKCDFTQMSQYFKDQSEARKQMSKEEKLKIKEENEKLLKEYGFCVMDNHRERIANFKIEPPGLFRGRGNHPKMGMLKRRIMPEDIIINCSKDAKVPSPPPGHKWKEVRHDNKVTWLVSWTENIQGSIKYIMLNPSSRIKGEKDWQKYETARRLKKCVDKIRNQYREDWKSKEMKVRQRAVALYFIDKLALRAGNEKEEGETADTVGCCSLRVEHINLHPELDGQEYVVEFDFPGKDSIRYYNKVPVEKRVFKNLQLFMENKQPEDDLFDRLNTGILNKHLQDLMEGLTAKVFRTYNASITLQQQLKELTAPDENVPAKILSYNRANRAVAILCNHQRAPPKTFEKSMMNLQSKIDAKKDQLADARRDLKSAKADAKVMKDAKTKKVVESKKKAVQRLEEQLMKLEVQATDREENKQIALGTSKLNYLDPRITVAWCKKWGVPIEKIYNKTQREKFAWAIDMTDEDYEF

| SMILES | ER (SER per footnote c, sensitization enhancement ratio) ([1]; 1 μM camptothecin 1 h before radiation, at 10% survival) | Dq (width of the shoulder of the radiation survival curve) ([1]; SHMT model fit, FIG. 3B) | RT dose (Gy) at 10% survival ([1]; pre-treated 1 μM camptothecin 1 h, rinsed, then radiation) [Gy] | Percent of cell survival without RT [2] [%] | Potency in stabilizing DNA-protein crosslinks (rank order) [3] | Relative resistance of DC3F/C10 cells to the cytotoxic effect ([4]; LD50 of DC3F/C10 divided by LD50 of DC3F, camptothecin 30-min treatment) | RR (relative resistance) ([4]; LD50 of DC3F/C-10 cells divided by LD50 of DC3F cells) | Radiation Dose (Gy) at 10% Survival (DC3F cells; 0.1 μM) [Gy] | SER (DC3F cells; 0.1 μM) | Radiation Dose (Gy) at 10% Survival (DC3F cells; 1.0 μM) [Gy] | SER (DC3F cells; 1.0 μM) | Radiation Dose (Gy) at 10% Survival ([5]; 1.0 μM) [Gy] | SER ([5]; 1.0 μM) | Radiation Dose (Gy) at 10% Survival ([5]; 10 μM) [Gy] | SER ([5]; 10 μM) | Potency in inducing TOP1-mediated DNA cleavage (nicking of pHOT1) (purified human TOP1) |
| --- | --- | --- | --- | --- | --- | --- | --- | --- | --- | --- | --- | --- | --- | --- | --- | --- |
| CC[C@@]1(O)C(=O)OCc2c1cc1n(c2=O)Cc2cc3ccccc3nc2-1 [Camptothecin, Camptothecin lactone, reference compound] | 1.4 | drastically reduced | 5.0 | 72 ± 5 | most potent | more than 12 fold | >12 | 4.3 | 1.4 | 3.9 | 1.5 | 5.2 | 1.0 | 4.6 | 1.1 |  |
| COc1cc([C@@H]2c3cc4c(cc3[C@@H](O[C@@H]3O[C@@H]5CO[C@@H](C)O[C@H]5[C@H](O)[C@H]3O)[C@H]3COC(=O)[C@H]23)OCO4)cc(OC)c1O [etoposide, reference compound] |  |  |  |  |  |  |  |  |  |  |  |  |  |  |  | no activity in inducing TOP1-mediated nicking of DNA |
